Data set [1] concerns Eleocharis kuroguwai. Put plainly: Pre-emergent herbicidal activity against Eleocharis kuroguwai assessed as growth inhibition at 25 g/a after 3 weeks in greenhouse conditions. Type of data set: functional. Particulars: pre-emergence, 504 h, read-out: GI.
For data set [2], the system named is Schoenoplectiella juncoides. Put plainly: Pre-emergent herbicidal activity against Schoenoplectiella juncoides assessed as growth inhibition at 10 g/a after 3 weeks in greenhouse conditions. The following applies: pre-emergence, 504 h, read-out: GI. Format: functional.
For data set [3], the system named is Echinochloa oryzicola. Put plainly: Pre-emergent herbicidal activity against Echinochloa oryzicola assessed as growth inhibition at 10 g/a after 3 weeks in greenhouse conditions. Format: functional. The following applies: pre-emergence, 504 h, read-out: GI.
Data set [4] relates to Schoenoplectiella juncoides. In words: Pre-emergent herbicidal activity against Schoenoplectiella juncoides assessed as growth inhibition at 25 g/a after 3 weeks in greenhouse conditions. Format: functional. The following applies: pre-emergence, 504 h, read-out: GI.
The subject of data set [5] is Echinochloa oryzicola. Put plainly: Pre-emergent herbicidal activity against Echinochloa oryzicola assessed as growth inhibition at 25 g/a after 3 weeks in greenhouse conditions. Format: functional. Particulars: pre-emergence, 504 h, read-out: GI.
Data set [6] deals with Lindernia procumbens. In words: Pre-emergent herbicidal activity against Lindernia procumbens assessed as growth inhibition at 10 g/a after 3 weeks in greenhouse conditions. Format: functional. The following applies: pre-emergence, 504 h, read-out: GI.
Data set [7] deals with Eleocharis acicularis. In words: Pre-emergent herbicidal activity against Eleocharis acicularis assessed as growth inhibition at 25 g/a after 3 weeks in greenhouse conditions. Type of data set: functional. The following applies: pre-emergence, 504 h, read-out: GI.
Data set [8] has as its system Cyperus serotinus. Put plainly: Pre-emergent herbicidal activity against Cyperus serotinus assessed as growth inhibition at 25 g/a after 3 weeks in greenhouse conditions. Type of data set: functional. The following applies: pre-emergence, 504 h, read-out: GI.
In data set [9] the test system is Eleocharis acicularis. In words: Pre-emergent herbicidal activity against Eleocharis acicularis assessed as growth inhibition at 10 g/a after 3 weeks in greenhouse conditions. Format: functional. The following applies: pre-emergence, 504 h, read-out: GI.
In data set [10] the test system is Eleocharis kuroguwai. Put plainly: Pre-emergent herbicidal activity against Eleocharis kuroguwai assessed as growth inhibition at 10 g/a after 3 weeks in greenhouse conditions. Format: functional. Particulars: pre-emergence, 504 h, read-out: GI.
In data set [11] the test system is Cyperus serotinus. Put plainly: Pre-emergent herbicidal activity against Cyperus serotinus assessed as growth inhibition at 10 g/a after 3 weeks in greenhouse conditions. Type of data set: functional. The following applies: pre-emergence, 504 h, read-out: GI.
Data set [12] is described as follows: Phytotoxicity against Oryza sativa (rice) assessed as growth inhibition at 25 g/a after 3 weeks in greenhouse conditions. Type of data set: organism-based. Particulars: in vivo, read-out: GI.
Data set [13] relates to Lindernia procumbens. In words: Pre-emergent herbicidal activity against Lindernia procumbens assessed as growth inhibition at 25 g/a after 3 weeks in greenhouse conditions. Format: functional. The following applies: pre-emergence, 504 h, read-out: GI.
Data set [14] can be described thus: Phytotoxicity against Oryza sativa (rice) assessed as growth inhibition at 10 g/a after 3 weeks in greenhouse conditions. Type of data set: organism-based. Particulars: in vivo, read-out: GI.

With `CCCSc1c(C)on(C(=O)N(c2ccc(Cl)cc2)C(C)C)c1=O`, the inhibition of growth at 2500 g/ha in [1], in data set [4], in data set [5], in data set [7], in data set [8] and in data set [13] was more than 91% throughout. Further, the inhibition of growth at 1000 g/ha was more than 91% in data set [2]; more than 91% in data set [3]; 51% in [6]; more than 91% in [9]; more than 91% in [10]; more than 91% in [11]. Moreover, the values for the inhibition at 504 h in data set [12] and in [14] were 31% and less than 10%, respectively.
